Measurements taken from BindingDB's records for doi:10.1021/jm990095j (Medivir, 1999).

Legend:
Assay in all cases: HIV-1 RT Assay
[1] = target: T1, Gag-Pol polyprotein [588-1027,K690N]/[588-1147,K690N] (Human immunodeficiency virus 1, UniProt P04585, K690N)
T1 construct: 588-1027; 588-1147

[2] = target: T2, Gag-Pol polyprotein [588-1027]/[588-1147] (Human immunodeficiency virus 1, UniProt P04585)
T2 construct: 588-1027; 588-1147

[3] = target: T3, Gag-Pol polyprotein [588-1127,Y768C]/[588-1147,Y768C] (Human immunodeficiency virus 1, UniProt P04585, Y768C)
T3 construct: 588-1127; 588-1147

| SMILES | IC50 ([1]; pH 7.8, 37 °C) [nM] | IC50 ([2]; pH 7.8, 37 °C) [nM] | IC50 [1] [nM] | other results |
| --- | --- | --- | --- | --- |
| CN(C)c1ccc(F)c(CCNC(=O)Nc2ccc(Br)cn2)c1F | > 2500 | 25 |  |  |
| CCOc1ccc(F)c(CCNC(=O)Nc2ccc(Br)cn2)c1Cl | > 2400 | 4 |  |  |
| COc1ccc(OC)c(CCNC(=O)Nc2ccc(Cl)cn2)c1F [1-(5-chloropyridin-2-yl)-3-[2-(2-fluoro-3,6-dimethoxyphenyl)ethyl]urea] |  | 3 |  |  |
| COc1c(C(C)=O)ccc(F)c1CCNC(=O)Nc1ccc(Cl)cn1 [1-(5-chloropyridin-2-yl)-3-[2-(3-acetyl-6-fluoro-2-methoxyphenyl)ethyl]urea] | > 2700 |  |  |  |
| COc1ccc(C(C)=O)c(F)c1CCNC(=O)Nc1ccc(Cl)cn1 [N-[2-(3-Acetyl-2-fluoro-6-methoxyphenethyl)]-N-[2-(5-chloropyridy)]urea] | > 2700 |  |  |  |
| O=C(Nc1ccc(Cl)cn1)NC1CC1c1c(F)ccc(O)c1Cl (stereo not drawn) [N-[cis-2-(2-Chloro-6-fluoro-3-hydroxyphenyl)cyclopropyl]-N-[2-(5-chloropyridyl)]urea] |  |  | > 2700 |  |
| CCC(=O)c1ccc(F)c(C2CC2NC(=O)Nc2ccc(C#N)cn2)c1O (stereo not drawn) [N-[cis-2-(6-Fluoro-2-hydroxy-3-propionylphenyl)cyclopropyl]-N-[2-(5-cyanopyridyl)]urea] |  |  | 97 |  |
| COc1ccc2c(c1)N(C(=O)OC(C)C)[C@@H](CSC)C(=S)N2 [propan-2-yl (2S)-7-methoxy-2-[(methylsulfanyl)methyl]-3-sulfanylidene-1,2,3,4-tetrahydroquinoxaline-1-carboxylate] |  |  | 56 | IC50 [2]: 8 nM; IC50 [3]: 9 nM |
